Where two headings read alike, the source gives them in different places.
Assays:
[1] = molecular target: recombinant human NF-kappaB-inducing kinase (NIK/MAP3K14) (Homo sapiens (Human), UniProt Q99558); test: Inhibition of auto-phosphorylation of recombinant human NIK/MAP3K14 activity (AlphaScreen); assay type: biochemical; conditions: averaged values over all measurements on all batches
Description: Inhibition of auto-phosphorylation of recombinant human NF-kappaB-inducing kinase (NIK/MAP3K14) activity (AlphaScreen®)
NIK/MAP3K14 auto-phosphorylation activity was measured using the AlphaScreen® (αscreen) format (Perkin Elmer). All compounds tested were dissolved in dimethyl sulfoxide (DMSO) and further dilutions were made in assay buffer. Final DMSO concentration was 1% (v/v) in assays. Assay buffer was 50 mM Tris pH 7.5 containing 1 mM EGTA (ethylene glycol tetraacetic acid), 1 mM DTT (dithiothreitol), 0.1 mM Na3VO4, 5 mM MgCl2, 0.01% Tween® 20. Assays were carried out in 384 well Alphaplates (Perkin Elmer). Incubations consisted of compound, 25 microM Adenosine-5′-triphosphate (ATP), and 0.2 nM NIK/MAP3K14. Incubations were initiated by addition of GST-tagged NIK/MAP3K14 enzyme, carried out for 1 h at 25° C. and terminated by addition of stop buffer containing anti-phospho-IKK Ser176/180 antibody. Protein A Acceptor and Glutathione-Donor beads were added before reading using an EnVision® Multilabel Plate Reader (Perkin Elmer). Signal obtained in the wells containing blank samples was subtracted from all other wells and IC50's were determined by fitting a sigmoidal curve to % inhibition of control versus Log10 compound concentration.

KMS12-BM cells = test: Antiproliferative activity on KMS12-BM (NIK WT) multiple myeloma cells (CellTiter-Glo); assay type: cell-based, human; conditions: KMS12-BM (NIK WT) cells, 96 hr, averaged values, read-out: KMS-12 Proliferation inhibition (IC50 (nM))
Description: (§1) Determination of antiproliferative activity on JJN-3 (NIK translocated) and KMS12-BM (NIK WT) multiple myeloma cells
(§2) All compounds tested were dissolved in DMSO and further dilutions were made in culture medium. Final DMSO concentration was 0.3% (v/v) in cell proliferation assays. Viability was assessed using CellTiter-Glo cell viability assay kit (Promega). The human JJN-3 and KMS12-BM cells (DSMZ) were cultured in RPMI 1640 medium supplemented with 2 mM L-glutamine, and 10% fetal calf serum (PAA). Cells were routinely kept as suspension cells at 37° C. in a humidified 5% CO2 atmosphere. Cells were passaged at a seeding density of 0.2×10^6/ml twice a week. Cells were seeded in black tissue culture treated 96-well plates (Perkin Elmer). Densities used for plating ranged from 15000 (JJN3) to 20000 (KMS12BM) cells per well in a total volume of 135 μl medium. Drugs and/or solvents were added (15 μl) to a final volume of 150 μl. Following 96 hr of treatment, plates were removed from the incubator and allowed to equilibrate to room temperature for approx 10 min. 75 μl CellTiter-Glo reagent was added to each well that was then covered (Perkin Elmer Topseal) and shaken on plate shaker for 10 min. Luminescence was measured on a HTS Topcount (Perkin Elmer). Within an experiment, the results for each treatment were the mean of 2 replicate wells. For initial screening purposes, compounds were tested using a 9 point dilution curve (serial 1:3 dilutions). For each experiment, controls (containing no drug) and a blank incubation (containing cells read at the time of compound addition) were run in parallel. The blank value was subtracted from all control and sample values. For each sample, the mean value for cell growth (in relative light units) was expressed as a percentage of the mean value for cell growth of the control.

JJN-3 cells = test: Antiproliferative activity on JJN-3 (NIK translocated) multiple myeloma cells (CellTiter-Glo); assay type: cell-based, human; conditions: JJN-3 (NIK translocated) cells, 96 hr, averaged values, read-out: JJN-3 Proliferation inhibition (IC50 (nM))
Description: as §1, §2

recombinant human NF-kappaB-inducing kinase (NIK/MAP3K14), sequence (Q99558 whole entry): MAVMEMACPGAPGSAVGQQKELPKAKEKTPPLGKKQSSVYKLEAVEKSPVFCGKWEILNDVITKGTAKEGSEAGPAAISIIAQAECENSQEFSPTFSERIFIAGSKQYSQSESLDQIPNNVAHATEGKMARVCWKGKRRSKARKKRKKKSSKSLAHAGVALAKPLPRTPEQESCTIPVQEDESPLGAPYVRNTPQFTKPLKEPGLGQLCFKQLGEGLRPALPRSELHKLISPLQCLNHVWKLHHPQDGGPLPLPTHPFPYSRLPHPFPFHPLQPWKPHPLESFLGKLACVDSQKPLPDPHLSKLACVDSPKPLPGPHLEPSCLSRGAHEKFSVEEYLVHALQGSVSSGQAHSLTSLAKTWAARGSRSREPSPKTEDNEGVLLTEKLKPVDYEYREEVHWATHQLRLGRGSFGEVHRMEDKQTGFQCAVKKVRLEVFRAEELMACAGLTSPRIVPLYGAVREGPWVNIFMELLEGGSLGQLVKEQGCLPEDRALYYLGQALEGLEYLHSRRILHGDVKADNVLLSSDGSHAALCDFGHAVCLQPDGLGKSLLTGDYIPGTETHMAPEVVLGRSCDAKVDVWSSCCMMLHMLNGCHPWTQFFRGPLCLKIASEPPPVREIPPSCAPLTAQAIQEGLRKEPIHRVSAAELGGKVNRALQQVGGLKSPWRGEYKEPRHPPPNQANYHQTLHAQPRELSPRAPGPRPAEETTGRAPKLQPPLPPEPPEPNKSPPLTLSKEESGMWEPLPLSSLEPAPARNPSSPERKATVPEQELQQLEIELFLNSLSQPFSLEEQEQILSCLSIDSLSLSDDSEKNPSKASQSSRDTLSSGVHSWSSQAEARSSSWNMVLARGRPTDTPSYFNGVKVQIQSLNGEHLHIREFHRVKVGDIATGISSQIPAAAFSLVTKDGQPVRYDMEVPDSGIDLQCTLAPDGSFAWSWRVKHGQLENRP

SMILES	IC50 [1] [nM]	IC50 (KMS12-BM cells; Homo sapiens, KMS-12-BM, 96 h) [nM]	IC50 (JJN-3 cells; Homo sapiens, JJN-3, 96 h) [nM]	IC50 (KMS12-BM cells) [nM]	IC50 (JJN-3 cells) [nM]
Cn1nc(C(=O)N2CCC(F)(F)CC2)cc1Nc1nccc(-c2cc(C#N)c3c(c2)C(C)(CO)CN3)n1 (stereo not drawn) [Compound 28]	~17	> 10000	2570		
Cc1cc(Nc2nccc(-c3cc(C#N)c4c(c3)[C@@](C)(CO)CN4)n2)n(C2CCOCC2)n1 [Compound 63]	9.8	6310	692		
CC(C)n1nccc1Nc1nccc(-c2cc(C#N)c3c(c2)C(C)(CO)CN3)n1 (stereo not drawn) [Compound 24]	10	> 10000	646		
Cn1cc(Nc2nccc(-c3cc(C#N)c4c(c3)[C@@](C)(CO)CN4)n2)c(CN2CCCC2=O)n1 [Compound 90]	5.7	5130	1550		
Cc1cc(Nc2nccc(-c3cc(C#N)c4c(c3)[C@@](C)(CO)CN4)n2)n(CC(=O)N2CCCCC2)n1 [Compound 179]	6.2	~10000	832		
Cn1cc(Nc2nccc(-c3cc(C#N)c4c(c3)[C@@](C)(CO)CN4)n2)c(C(F)(F)F)n1 [Compound 64]	1.9	3240	240		
Cn1ccc(Nc2ncc(F)c(-c3cc(C#N)c4c(c3)[C@@](C)(CO)CN4)n2)n1 [Compound 144]	2	44	36		
Cn1ccc(Nc2nccc(-c3cc(C#N)c4c(c3)[C@@](C)(CO)CN4)n2)n1 [Compound 19]	2.2	2720	163		
Cc1cc(Nc2nccc(-c3cc(C#N)c4c(c3)[C@@](C)(CO)CN4)n2)n(CC2CCCCO2)n1 (single isomer, unassigned) [Compound 69]	5.8			> 10000	78
CC(C)n1ccc(Nc2nccc(-c3cc(C#N)c4c(c3)[C@](C)(CO)CN4)n2)n1 [Compound 31]	14	> 10000	589		
Cn1nc(Nc2nccc(-c3cc(C#N)c4c(c3)C(C)(CO)CN4)n2)cc1C1CC1 (stereo not drawn) [Compound 29]	4.4	1440	~603		
Cn1nc(Nc2nccc(-c3cc(C#N)c4c(c3)C(C)(CO)CN4)n2)cc1C(=O)NC1CCOCC1 (stereo not drawn) [Compound 50]	3.8	> 10000	316		
Cn1nc(Cl)cc1Nc1nccc(-c2cc(C#N)c3c(c2)[C@@](C)(CO)CN3)n1 [Compound 41]	2.1	~479	78		
Cn1nc(C2CCOCC2)cc1Nc1nccc(-c2cc(C#N)c3c(c2)[C@@](C)(CO)CN3)n1 [Compound 67]	1.6	912	141		
Cn1ccc(Nc2nccc(-c3cc(C#N)c4c(c3)[C@](C)(CO)CN4)n2)n1 [Compound 34]	10	~10000	1180		
COCCCn1nccc1Nc1nccc(-c2cc(C#N)c3c(c2)[C@@](C)(CO)CN3)n1 [Compound 46]	6.6	2400	158		
Cc1nn(CC2CCOCC2)cc1Nc1nccc(-c2cc(C#N)c3c(c2)[C@@](C)(CO)CN3)n1 [Compound 75]	13	~6030	2090		
CNC(=O)c1cc(Nc2nccc(-c3cc(C#N)c4c(c3)[C@@](C)(CO)CN4)n2)n(C)n1 [Compound 56]	3.1	~1410	~363		
Cc1coc(Nc2nccc(-c3cc(C#N)c4c(c3)[C@@](C)(CO)CN4)n2)n1 [Compound 147]	9.6	~5010	~436		

SMILES	IC50 [1] [nM]	IC50 (KMS12-BM cells; Homo sapiens, KMS-12-BM, 96 h) [nM]	IC50 (JJN-3 cells; Homo sapiens, JJN-3, 96 h) [nM]	IC50 (KMS12-BM cells) [nM]	IC50 (JJN-3 cells) [nM]
Cn1nc(C2(C)COC2)cc1Nc1nccc(-c2cc(C#N)c3c(c2)C(C)(CO)CN3)n1 (stereo not drawn) [Compound 5]	5.4	> 10000	708		
Cc1cc(Nc2nccc(-c3cc(C#N)c4c(c3)[C@@](C)(CO)CN4)n2)n(CC2CCCO2)n1 (single isomer, unassigned) [Compound 51]	4.1		~59	~1900	
Cc1c(Nc2nccc(-c3cc(C#N)c4c(c3)C(C)(CO)CN4)n2)cnn1C (stereo not drawn) [Compound 36]	2.6	7590	174		
Cc1nc(Nc2nccc(-c3cc(C#N)c4c(c3)[C@@](C)(CO)CN4)n2)sc1C [Compound 148]	0.8	282	93		
Cn1ccc(Nc2ncc(F)c(-c3cc(C#N)c4c(c3)C(C)(CO)CN4)n2)n1 (stereo not drawn) [Compound 143]	1.3	204	~81		
COCCCn1ccc(Nc2nccc(-c3cc(C#N)c4c(c3)C(C)(CO)CN4)n2)n1 (stereo not drawn) [Compound 23]	4.9	3890	295		
Cc1cc(Nc2nccc(-c3cc(C#N)c4c(c3)[C@@](C)(CO)CN4)n2)n(C2CCS(=O)(=O)C2)n1 (mixture of isomers) [Compound 33]	9.1	~6170	1260		
Cc1cc(Nc2nccc(-c3cc(C#N)c4c(c3)[C@@](C)(CO)CN4)n2)n(CC(C)C)n1 [Compound 55]	4.4	~2040	59		
COCCn1ccc(Nc2nccc(-c3cc(C#N)c4c(c3)C(C)(CO)CN4)n2)n1 (stereo not drawn) [Compound 16]	2.8	7080	525		
CN1CCC(n2nccc2Nc2nccc(-c3cc(C#N)c4c(c3)[C@@](C)(CO)CN4)n2)CC1 [Compound 38]	47	3890	3980		
COCCCn1nc(C)cc1Nc1nccc(-c2cc(C#N)c3c(c2)[C@](C)(CO)CN3)n1 [Compound 54]	11	> 10000	525		
Cn1ccc(Nc2nccc(-c3cc(C#N)c4c(c3)C(C)(CO)CN4)n2)n1 (stereo not drawn) [Compound 1]	4	2430	250		
COCCn1nc(C)cc1Nc1nccc(-c2cc(C#N)c3c(c2)C(C)(CO)CN3)n1 (stereo not drawn) [Compound 14]	7.1	~7240	234		
Cn1cc(Cl)c(Nc2nccc(-c3cc(C#N)c4c(c3)C(C)(CO)CN4)n2)n1 (stereo not drawn) [Compound 32]	27	> 10000	7760		
CC(C)(c1cc(Nc2nccc(-c3cc(C#N)c4c(c3)[C@@](C)(CO)CN4)n2)[nH]n1)S(C)(=O)=O [Compound 65]	10	> 10000	~1410		
CC1(CO)CNc2c(C#N)cc(-c3ccnc(Nc4cnn(CC(F)F)c4)n3)cc21 (stereo not drawn) [Compound 30]	3.2	~170	47		
Cc1nscc1Nc1nccc(-c2cc(C#N)c3c(c2)[C@@](C)(CO)CN3)n1 [Compound 146]	1.3	589	102		
COCCCn1nccc1Nc1nccc(-c2cc(C#N)c3c(c2)[C@](C)(CO)CN3)n1 [Compound 47]	44	> 10000	1550		
